Tests used:
EGFR-L858R/T790M/C797S = target: T1, EGFR-L858R/T790M/C797S (Homo sapiens, UniProt P00533, C797S/L858R/T790M); assay: EGFR degradation HTRF assay in H1975-clone #25 cells; type: cell-based; settings: 16 h treatment; for DC50: H1975-clone #25 (L858R/T790M/C797S) cells, IC50 (DC50), read-out: DC50(nM) H1975 # 25-LTC; for Dmax: NCI-H1975, H1975-clone #25 (L858R/T790M/C797S) cells, maximum percentage of inhibition (degradation), read-out: Dmax (%) H1975 # 25-LTC
T1 construct: expressed in transfected cells; host or cells: H1975-clone #25 (lentiviral over-expression, endogenous EGFR knocked out)
T1 sequence (P00533 25-1210 T790M/C797S/L858R): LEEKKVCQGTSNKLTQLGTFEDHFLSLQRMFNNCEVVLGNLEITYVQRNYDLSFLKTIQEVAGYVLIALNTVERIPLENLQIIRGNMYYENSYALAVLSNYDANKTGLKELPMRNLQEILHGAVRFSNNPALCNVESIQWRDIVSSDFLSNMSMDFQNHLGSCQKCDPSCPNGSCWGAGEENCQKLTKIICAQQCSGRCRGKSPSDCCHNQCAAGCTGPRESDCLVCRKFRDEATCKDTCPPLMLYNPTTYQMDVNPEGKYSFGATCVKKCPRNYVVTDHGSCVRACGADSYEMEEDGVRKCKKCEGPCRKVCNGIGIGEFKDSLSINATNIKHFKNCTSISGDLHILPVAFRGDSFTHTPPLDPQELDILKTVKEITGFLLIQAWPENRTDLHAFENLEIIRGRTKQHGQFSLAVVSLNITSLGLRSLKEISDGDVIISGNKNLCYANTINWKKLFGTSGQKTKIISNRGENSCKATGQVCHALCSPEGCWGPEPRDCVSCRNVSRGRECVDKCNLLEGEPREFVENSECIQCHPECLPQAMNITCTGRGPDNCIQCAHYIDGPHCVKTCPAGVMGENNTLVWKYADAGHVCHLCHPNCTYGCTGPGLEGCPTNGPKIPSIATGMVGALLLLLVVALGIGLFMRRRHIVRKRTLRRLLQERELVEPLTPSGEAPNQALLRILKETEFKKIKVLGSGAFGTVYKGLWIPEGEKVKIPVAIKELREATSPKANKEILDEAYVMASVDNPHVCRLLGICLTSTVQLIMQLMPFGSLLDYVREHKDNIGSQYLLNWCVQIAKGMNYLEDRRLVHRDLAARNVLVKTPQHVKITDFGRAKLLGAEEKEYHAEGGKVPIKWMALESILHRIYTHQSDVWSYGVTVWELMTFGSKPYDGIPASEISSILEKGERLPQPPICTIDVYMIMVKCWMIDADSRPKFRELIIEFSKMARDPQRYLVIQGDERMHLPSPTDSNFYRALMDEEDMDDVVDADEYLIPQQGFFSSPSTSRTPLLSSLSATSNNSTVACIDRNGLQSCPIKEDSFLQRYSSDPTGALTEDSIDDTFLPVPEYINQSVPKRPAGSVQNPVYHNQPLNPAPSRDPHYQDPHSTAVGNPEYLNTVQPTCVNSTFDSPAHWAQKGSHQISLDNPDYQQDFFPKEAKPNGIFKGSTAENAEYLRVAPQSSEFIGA
Outline: (§1)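 H1975 clones with endogenous EGFR knocked out, homozygously expressing lentiviral L858R/T790M/C797S (#25) or Del19/T790M/C797S (#28), treated 16 h at 37° C with 8 doses from 10 uM, 5-fold, in 0.2% DMSO. EGFR in lysates measured by HTRF overnight; DC50 from four-parameter fit of % degradation.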

EGFR-Del19/T790M/C797S = assay: EGFR degradation HTRF assay in H1975-clone #28 cells; type: cell-based; settings: H1975-clone #28 (Del19/T790M/C797S) cells, 16 h treatment; for DC50: IC50 (DC50), read-out: DC50(nM) H1975 # 28 DTC; for Dmax (%) H1975 # 28 DTC: maximum percentage of inhibition (degradation)
Outline: as §1

Row | SMILES | DC50 (EGFR-L858R/T790M/C797S) [nM] | Dmax (EGFR-L858R/T790M/C797S) [%] | DC50 (EGFR-Del19/T790M/C797S) [nM] | Dmax (%) H1975 # 28 DTC (EGFR-Del19/T790M/C797S) [%]
1 | CCOc1cc(N2CCC(N3CC(N4CCC(c5cc(F)c([C@H]6CCC(=O)NC6=O)c(F)c5)CC4)C3)CC2)c(CC)cc1Nc1ncc(Cl)c(Nc2ccc3nc(C)c(F)cc3c2P(C)(C)=O)n1 [Example 15, (R)-3-(4-(1-(1-(1-(4-((5-chloro-4-((5-(dimethylphosphoryl)-3-fluoro-2-methylquinolin-6-yl)amino)pyrimidin-2-yl)amino)-5-ethoxy-2-ethylphenyl)piperidin-4-yl)azetidin-3-yl)piperidin-4-yl)-2,6-difluorophenyl)piperidine-2,6-dione] | 3.3 | 94 | 2.7 | 95
2 | CCc1ccc2c(P(C)(C)=O)c(Nc3nc(Nc4cc(CC)c(N5CCC(N6CC7(CN(c8cc(F)c([C@H]9CCC(=O)NC9=O)c(F)c8)C7)C6)CC5)cc4OC)ncc3Br)ccc2n1 (single isomer, unassigned) [Example 27] | 2.4 | 92 | 1.3 | 91
3 | CCc1ncc2c(P(C)(C)=O)c(Nc3nc(Nc4cc(CC)c(N5CCC(N6CC7(CN(c8cccc9c8n(C)c(=O)n9C8CCC(=O)NC8=O)C7)C6)CC5)cc4OC)ncc3Br)ccc2n1 (centres unmarked) [Example 25, 3-(4-(6-(1-(4-((5-bromo-4-((5-(dimethylphosphoryl)-2-ethylquinazolin-6-yl)amino)pyrimidin-2-yl)amino)-2-ethyl-5-methoxyphenyl)piperidin-4-yl)-2,6-diazaspiro[3.3]heptan-2-yl)-3-methyl-2-oxo-2,3-dihydro-1H-benzo[d]imidazol-1-yl)piperidine-2,6-dione] | 0.5 | 82 | 0.8 | 74
4 | CCc1cc(Nc2ncc(Cl)c(Nc3ccc4nc(C)c(F)cc4c3P(C)(C)=O)n2)c(OC)cc1N1CC2(CN(CC3CN(c4cc(F)c([C@H]5CCC(=O)NC5=O)c(F)c4)C3)C2)C1 [Example 78] | 5.4 | 74 | 1.9 | 90
5 | CCc1ncc2c(P(C)(C)=O)c(Nc3nc(Nc4cc(CC)c(N5CCC(N6CCN(C7CN(c8cc(F)c([C@H]9CCC(=O)NC9=O)c(F)c8)C7)CC6)CC5)cc4OC)ncc3Br)ccc2n1 (single isomer, unassigned) [Example 7] | 2.9 | 76 | 2.7 | 86
6 | CCc1ccc2c(P(C)(C)=O)c(Nc3nc(Nc4cc(CC)c(N5CCC(N6CCN(C7CCN(c8cc(F)c([C@H]9CCC(=O)NC9=O)c(F)c8)CC7)CC6)CC5)cc4OC)ncc3Br)ccc2n1 (single isomer, unassigned) [Example 10] | 4.9 | 91 | 2.7 | 88
7 | COc1cc(N2CCC3(CC2)CCN(C2CCN(c4cc(F)c([C@H]5CCC(=O)NC5=O)c(F)c4)CC2)CC3)c(C)cc1Nc1ncc(Br)c(Nc2ccc3nc(C)c(F)cc3c2P(C)(C)=O)n1 [Example 37, (R)-3-(4-(4-(9-(4-((5-bromo-4-((5-(dimethylphosphoryl)-3-fluoro-2-methylquinolin-6-yl)amino)pyrimidin-2-yl)amino)-5-methoxy-2-methylphenyl)-3,9-diazaspiro[5.5]undecan-3-yl)piperidin-1-yl)-2,6-difluorophenyl)piperidine-2,6-dione] | 1.4 | 95 | 3.3 | 90
8 | CCc1cc(Nc2ncc(Br)c(Nc3ccc4nc(C)c(F)cc4c3P(C)(C)=O)n2)c(OC)cc1N1CCC(N2CC(N3CCN(c4cc(F)c([C@H]5CCC(=O)NC5=O)c(F)c4)CC3)C2)CC1 (single isomer, unassigned) [Example 16] | 1.1 | 85 | 2.8 | 88
9 | COc1cc(N2CCC3(CCN(CC4CCN(c5ccc6c(c5)CN(C5CCC(=O)NC5=O)C6=O)CC4)CC3)CC2)c(C)cc1Nc1ncc(Br)c(Nc2ccc3nc(C)ccc3c2P(C)(C)=O)n1 (centres unmarked) [Example 72, 3-(5-(4-((9-(4-((5-bromo-4-((5-(dimethylphosphoryl)-2-methylquinolin-6-yl)amino)pyrimidin-2-yl)amino)-5-methoxy-2-methylphenyl)-3,9-diazaspiro[5.5]undecan-3-yl)methyl)piperidin-1-yl)-1-oxoisoindolin-2-yl)piperidine-2,6-dione] | 2 | 82 | 1.8 | 82
10 | CCc1cc(Nc2ncc(Br)c(Nc3ccc4nc(C)c(F)cc4c3P(C)(C)=O)n2)c(OC)cc1N1CCC2(CCN(CC3CCN(c4ccc5c(c4)CN(C4CCC(=O)NC4=O)C5=O)CC3)CC2)CC1 (centres unmarked) [Example 48, 3-(5-(4-((9-(4-((5-bromo-4-((5-(dimethylphosphoryl)-3-fluoro-2-methylquinolin-6-yl)amino)pyrimidin-2-yl)amino)-2-ethyl-5-methoxyphenyl)-3,9-diazaspiro[5.5]undecan-3-yl)methyl)piperidin-1-yl)-1-oxoisoindolin-2-yl)piperidine-2,6-dione] | 2.8 | 90 | 1.7 | 83
11 | COc1cc(N2CCC3(CC2)CCN(C2CCN(c4cc(F)c([C@H]5CCC(=O)NC5=O)c(F)c4)CC2)CC3)c(C)cc1Nc1ncc(Br)c(Nc2ccc3nccnc3c2P(C)(C)=O)n1 [Example 36, (R)-3-(4-(4-(9-(4-((5-bromo-4-((5-(dimethylphosphoryl)quinoxalin-6-yl)amino)pyrimidin-2-yl)amino)-5-methoxy-2-methylphenyl)-3,9-diazaspiro [5.5]undecan-3-yl)piperidin-1-yl)-2,6-difluorophenyl)piperidine-2,6-dione] | 4.5 | 94 | 3.1 | 93
12 | CCc1ccc2c(P(C)(C)=O)c(Nc3nc(Nc4cc(CC)c(N5CCC(N6CCC(N7CCN(c8cc(F)c([C@H]9CCC(=O)NC9=O)c(F)c8)CC7)CC6)CC5)cc4OC)ncc3Br)ccc2n1 (single isomer, unassigned) [Example 11] | 0.9 | 94 | 1.8 | 88
13 | CCc1ncc2c(P(C)(C)=O)c(Nc3nc(Nc4cc(CC)c(N5CCC6(CCN(CCc7cc(F)c([C@H]8CCC(=O)NC8=O)c(F)c7)CC6)CC5)cc4OC)ncc3Br)ccc2n1 [Example 40, (R)-3-(4-(2-(9-(4-((5-bromo-4-((5-(dimethylphosphoryl)-2-ethylquinazolin-6-yl)amino)pyrimidin-2-yl)amino)-2-ethyl-5-methoxyphenyl)-3,9-diazaspiro[5.5]undecan-3-yl)ethyl)-2,6-difluorophenyl)piperidine-2,6-dione] | 6 | 86 | 2.4 | 88
14 | CCc1cc(Nc2ncc(Br)c(Nc3ccc4nc(C)c(F)cc4c3P(C)(C)=O)n2)c(OC)cc1N1CCC(N2CCN(C3CN(c4cc(F)c([C@H]5CCC(=O)NC5=O)c(F)c4)C3)CC2)CC1 [Example 8, (R)-3-(4-(3-(4-(1-(4-((5-bromo-4-((5-(dimethylphosphoryl)-3-fluoro-2-methylquinolin-6-yl)amino)pyrimidin-2-yl)amino)-2-ethyl-5-methoxyphenyl)piperidin-4-yl)piperazin-1-yl)azetidin-1-yl)-2,6-difluorophenyl)piperidine-2,6-dione] | 1.6 | 87 | 0.6 | 80
15 | CCc1cc(Nc2ncc(Br)c(Nc3ccc4nc(C)c(F)cc4c3P(C)(C)=O)n2)c(OC)cc1N1CCC2(CCN(CC3CCN(c4ccc5c(c4)C(=O)N(C4CCC(=O)NC4=O)C5=O)CC3)CC2)CC1 (centres unmarked) [Example 46, 5-(4-((9-(4-((5-bromo-4-((5-(dimethylphosphoryl)-3-fluoro-2-methylquinolin-6-yl)amino)pyrimidin-2-yl)amino)-2-ethyl-5-methoxyphenyl)-3,9-diazaspiro [5.5]undecan-3-yl)methyl)piperidin-1-yl)-2-(2,6-dioxopiperidin-3-yl)isoindoline-1,3-dione] | 5.4 | 89 | 3.3 | 80
16 | CCc1cc(Nc2ncc(Br)c(Nc3ccc4nc(C)c(F)cc4c3P(C)(C)=O)n2)c(OC)cc1N1CCC2(CCN(CC3CN(c4cccc5c4CN(C4CCC(=O)NC4=O)C5=O)C3)CC2)CC1 (centres unmarked) [Example 33, 3-(4-(3-((9-(4-((5-bromo-4-((5-(dimethylphosphoryl)-3-fluoro-2-methylquinolin-6-yl)amino)pyrimidin-2-yl)amino)-2-ethyl-5-methoxyphenyl)-3,9-diazaspiro[5.5]undecan-3-yl)methyl)azetidin-1-yl)-1-oxoisoindolin-2-yl)piperidine-2,6-dione] | 1.5 | 91 | 2.1 | 82
17 | CCc1cc(Nc2ncc(Br)c(Nc3ccc4nc(C)c(F)cc4c3P(C)(C)=O)n2)c(OC)cc1N1CCC2(CCN(CC3CCN(c4cccc5c4C(=O)N(C4CCC(=O)NC4=O)C5=O)CC3)CC2)CC1 (centres unmarked) [Example 45, 4-(4-((9-(4-((5-bromo-4-((5-(dimethylphosphoryl)-3-fluoro-2-methylquinolin-6-yl)amino)pyrimidin-2-yl)amino)-2-ethyl-5-methoxyphenyl)-3,9-diazaspiro[5.5]undecan-3-yl)methyl)piperidin-1-yl)-2-(2,6-dioxopiperidin-3-yl)isoindoline-1,3-dione] | 7.4 | 86 | 7.7 | 81

Source: patent US20240368203A1, “DEGRADATION OF (EGFR) BY CONJUGATION OF EGFR INHIBITORS WITH E3 LIGASE LIGAND AND METHODS OF USE” (BeiGene, Ltd., priority 2022, published 2024)
